# Results reported in PubChem BioAssay (NCI).
#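 Method: 48-hour compound exposure of cells in 96-well plates, five concentrations, linear interpolation of endpoints. GI50 marks 50% less growth. Definition used: TGI = concentration required for complete inhibition of growth.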
# Tests used:
# Assay in all cases: NCI anticancer screen, dose series, 48 h
# [1] = tested on: HS 578T breast
# [2] = tested on: M14 melanoma
# [3] = tested on: SNB-75 CNS
# [4] = tested on: NCI-H522 lung
# [5] = tested on: MCF7 breast
# [6] = tested on: PC-3 prostate
# [7] = tested on: DU-145 prostate
# [8] = tested on: SK-MEL-5 melanoma
# [9] = tested on: CAKI-1 renal
# [10] = tested on: OVCAR-5 ovarian
SMILES,GI50 [1],TGI [1],GI50 [2],TGI [2],GI50 [3],TGI [3],GI50 [4],TGI [4],GI50 [5],TGI [5],GI50 [6],TGI [6],GI50 [7],TGI [7],GI50 [8],TGI [8],GI50 [9],TGI [9],GI50 [10],TGI [10]
Cc1cc(S(=O)(=O)Nc2nc3ccccc3o2)c(SCc2ccccc2)cc1Cl,29.5 µM,78.9 µM,17.5 µM,38 µM,38.6 µM,90.8 µM,> 100 µM,> 100 µM,22.4 µM,78.3 µM,16.1 µM,30.5 µM,26.5 µM,77.9 µM,16.7 µM,33.4 µM,19.6 µM,47.3 µM,20.3 µM,46.1 µM
CCSCC1CC(O)(c2ccccc2)CC(c2ccc(F)cc2)O1 (stereo not drawn),1.89 µM,4.36 µM,1.76 µM,3.32 µM,1.88 µM,5.74 µM,1.94 µM,5.88 µM,2.79 µM,8.98 µM,1.82 µM,4.89 µM,2.66 µM,7.17 µM,1.74 µM,3.16 µM,2.42 µM,8.16 µM,2.17 µM,5.09 µM
CCCCCCCCCCCCOC1C(CNC(=O)C2OC3OC(C)(C)OC3C2NC(=O)Nc2ccc(CC(=O)OC)cc2)OC2OC(C)(C)OC21 (stereo not drawn),> 100 µM,> 100 µM,22.7 µM,> 100 µM,> 100 µM,> 100 µM,> 100 µM,> 100 µM,> 100 µM,> 100 µM,> 100 µM,> 100 µM,> 77 µM,> 100 µM,> 100 µM,> 100 µM,47 µM,> 100 µM,> 100 µM,> 100 µM
Fc1cccc(COc2ccc(Nc3ncnc4sc(-c5cccs5)cc34)cc2Cl)c1,> 8.44 µM,> 14.9 µM,7.66 µM,> 25 µM,4.17 µM,10 µM,7.55 µM,> 22.4 µM,0.75 µM,8.42 µM,> 10.7 µM,> 20.4 µM,11.1 µM,> 17.7 µM,2.93 µM,12 µM,> 9.71 µM,> 25 µM,6.89 µM,> 25 µM
COc1ccc(C2CC(c3cccc(Nc4ccnc5cc(Cl)ccc45)c3)=NN2C=O)cc1 (stereo not drawn),0.367 µM,16.9 µM,0.374 µM,21.2 µM,0.244 µM,3.01 µM,0.265 µM,3.06 µM,0.361 µM,> 100 µM,0.577 µM,> 100 µM,0.978 µM,> 34.9 µM,0.403 µM,25.8 µM,0.394 µM,29.2 µM,7.61 µM,> 100 µM
Cc1cc(O)c(=O)cc2c1C[C@H]1CC(C)(C)/C=C/C[C@]3(C)Oc4cc(=O)c(O)cc(C)c4C[C@H]3C[C@H](O)[C@@]1(C)O2,0.0339 µM,> 100 µM,0.0266 µM,19.7 µM,0.0262 µM,42 µM,0.0192 µM,0.0853 µM,< 0.01 µM,> 100 µM,< 0.01 µM,23.5 µM,< 0.01 µM,> 75.9 µM,0.0166 µM,0.0985 µM,0.0225 µM,,0.0434 µM,> 100 µM
O=c1c2c(=NCCN3CCCC3)cc3c(=O)n(CCCN4CCOCC4)c(=O)c4c(-c5ccc(CN6CCCC6)cc5)cc(c(O)n1CCCN1CCOCC1)c2c4-3,0.132 µM,0.57 µM,0.136 µM,0.641 µM,0.0582 µM,0.228 µM,0.0265 µM,0.135 µM,0.0284 µM,0.446 µM,0.0278 µM,0.168 µM,0.103 µM,1.23 µM,0.133 µM,0.3 µM,0.0346 µM,0.651 µM,0.0847 µM,0.724 µM
Cc1nc([P+](c2ccccc2)(c2ccccc2)c2ccccc2)c(Sc2sc(-c3ccccc3)nc2[P+](c2ccccc2)(c2ccccc2)c2ccccc2)o1,1.22 µM,5.32 µM,1.21 µM,5.3 µM,1.11 µM,4.31 µM,1.43 µM,6.15 µM,0.669 µM,4.81 µM,1.04 µM,2.72 µM,1.22 µM,4.96 µM,1.48 µM,2.85 µM,2.69 µM,9.71 µM,2.29 µM,8.53 µM
COc1ccc(C2=N[C@@H](Cc3ccccc3)C(=O)Nc3ccsc32)cc1,3.24 µM,28.8 µM,3.66 µM,12.6 µM,2.05 µM,7.08 µM,2.71 µM,8.98 µM,3.73 µM,25.4 µM,3.78 µM,25.2 µM,4.65 µM,21.9 µM,3.26 µM,12.1 µM,3.87 µM,33.8 µM,11.5 µM,36.4 µM
CCOC(=O)c1cc(C(=O)c2cc(OC)c(OC)c(OC)c2)n2ncccc12,0.309 µM,26.1 µM,0.229 µM,> 100 µM,0.175 µM,42.4 µM,0.29 µM,> 21.7 µM,0.131 µM,> 100 µM,0.289 µM,> 100 µM,0.37 µM,> 100 µM,0.247 µM,> 100 µM,0.374 µM,> 100 µM,2.72 µM,> 100 µM
COc1cc(C2Cc3ncccc3-c3[nH]c(=O)c4cccnc4c32)cc(OC)c1OC (stereo not drawn),0.613 µM,> 100 µM,0.405 µM,> 100 µM,0.255 µM,> 100 µM,0.204 µM,0.635 µM,0.277 µM,> 100 µM,0.513 µM,> 100 µM,0.428 µM,> 100 µM,0.339 µM,20.2 µM,1.58 µM,> 100 µM,4.82 µM,> 100 µM
C/C(=N\NC(=S)N1CCCCC1)c1ccccn1,0.142 µM,,< 0.0148 µM,2.23 µM,1.66 µM,6.8 µM,0.136 µM,1.51 µM,< 0.01 µM,6.13 µM,< 0.01 µM,12.6 µM,0.236 µM,5.67 µM,0.0694 µM,0.87 µM,0.103 µM,5.22 µM,0.054 µM,13.7 µM
c1cc(NNc2cccc(-c3nn[nH]n3)c2)cc(-c2nn[nH]n2)c1,,> 100 µM,,> 100 µM,,> 100 µM,,> 100 µM,,> 100 µM,,> 100 µM,,> 100 µM,,> 100 µM,,> 100 µM,,> 100 µM
Cc1cc2nc3c4cc(O)ccc4n(CCN(C)C)c3nc2cc1C,1.49 µM,5.41 µM,0.523 µM,1.91 µM,0.229 µM,2.92 µM,0.541 µM,3.32 µM,0.45 µM,3.26 µM,0.578 µM,2.3 µM,1.03 µM,4.31 µM,1.59 µM,2.97 µM,0.337 µM,2.11 µM,0.953 µM,4.46 µM
O=C1CSCc2sccc21,,> 100 µM,,> 100 µM,,> 100 µM,,> 100 µM,,> 100 µM,,> 100 µM,,> 100 µM,,> 100 µM,,> 100 µM,,> 100 µM
COc1ccc2c(c1)/C(=C\c1c(-c3cc(OC)ccc3OC)nc3sc(C)cn13)C(=O)N2C,48.9 µM,> 100 µM,26.1 µM,71.4 µM,6.68 µM,45.9 µM,29.6 µM,> 100 µM,28.3 µM,> 100 µM,16.3 µM,93.8 µM,56.9 µM,> 100 µM,20.9 µM,65.4 µM,18.3 µM,86 µM,55.7 µM,> 100 µM
CCN(CCCN(C)C)Cc1cc(I)cc(C)c1O,15.3 µM,33.1 µM,16.6 µM,31 µM,16.1 µM,39.7 µM,18.7 µM,36.4 µM,17.4 µM,35.8 µM,21.5 µM,65.8 µM,36.8 µM,> 100 µM,17.6 µM,31.5 µM,18.5 µM,39.3 µM,26.8 µM,96.1 µM
Fc1cc2[nH]ncc2c2c3c(c(-c4cn[nH]c4C(F)(F)F)nc12)CCCC3,1.66 µM,5.26 µM,1.31 µM,4.12 µM,1.5 µM,2.95 µM,1.62 µM,9.4 µM,1.18 µM,> 100 µM,1.86 µM,> 100 µM,1.72 µM,> 100 µM,1.23 µM,2.95 µM,1.81 µM,7.54 µM,2.49 µM,7.43 µM
O=c1[nH]c2ccccc2c2ccccc12,> 100 µM,> 100 µM,> 100 µM,> 100 µM,> 100 µM,> 100 µM,> 100 µM,> 100 µM,> 100 µM,> 100 µM,> 100 µM,> 100 µM,> 100 µM,> 100 µM,91.5 µM,> 100 µM,> 100 µM,> 100 µM,> 100 µM,> 100 µM
